Test results as given in patent publication US9828381B2, “Substituted pyrazolopyrimidines and method of use” (AbbVie Deutschland GmbH & Co. KG, priority 2015, dated 2017).

Target: GABA-B receptor (Rattus norvegicus (Rat), UniProt O88871+Q9Z0U4)
Experiment: [35S]GTPgS binding assay, rat cortical membranes, in presence of EC25 GABA
Type: biochemical
Conditions: rat brain cortex membranes; in presence of 1 μM GABA (EC25); positive allosteric modulation
Procedure: Preparation of Rat Brain Membranes for Native Receptor Assays
Membranes from rat brain cortex were prepared as described in detail by Olpe et al. and stored at concentrations of 1.66 mg/mL protein at −80° C. until required. (Olpe, H.-R, et al. Eur J Pharmacol 1990; 187: 27-38).
[^35S] GTPgS Binding Assay
The composition of the assay mixtures [in a final volume of 200 μL in 96-well U-bottom plates (Greiner) was as follows: 50 mM Tris-HCl buffer, pH 7.7, 10 mM MgCl2, 0.2 mM EGTA, 2 mM CaCl2, 100 mM NaCl, 20 µM guanosine 5′-diphosphate (Sigma), 0.3 nM [^35S]GTPgS (1250 Ci/mmol (PerkinElmer)), and the test compounds at increasing concentrations (from 10 nM up to […]), […] of rat cortical membranes, and a concentration of […], that has been observed in previous experiments to correspond to the EC25, a concentration that gives 25% of the maximal response of GABA. The samples were incubated at room temperature for 60 minutes on a shaker. The incubation was stopped by rapid vacuum filtration over glass-fiber filter plates (UniFilter-96 well, GF/B membrane plates, PerkinElmer) using a 96-well plate harvester (TOMTEK© Harvester). The UniFilter plate was washed five times with ice-cold wash buffer (50 mM Tris-HCl buffer, pH 7.7, 10 mM MgCl2, and 100 mM NaCl. After filtration the plate was dried for 90 minutes at 55° C. The plates were closed on the bottom with black sealing membranes, and liquid scintillation cocktail (35 μL, Betaplate Scint, PerkinElmer) was added to each well. After sealing the top of the plate, an additional incubation step of 90 minutes at room temperature followed before measuring the plate. The amount of membrane-bound [^35S]GTPgS was measured using a 96-well plate reader (Microbeta®, PerkinElmer). Nonspecific binding was measured in the presence of unlabeled 10 μM of GTPgS (Millipore) and without GABA. Basal binding was measured in the absence of 1 μM GABA, and maximal binding was measured in the presence of GABA using 1 mM GABA concentrations.
Data analysis. The concentration-response curves of compounds of the present disclosure in the presence of EC25 of GABA-B receptor agonist were generated using the GraphPad Prism® program (GraphPad Software, San Diego, Calif.). Data was normalized using basal binding as 0% and maximal binding as 100%. The curves were fitted by nonlinear regression allowing determination of EC50 values from sigmoidal dose-response curves. Each curve was performed using triplicate sample per date point and 10 concentrations.

Sequence of GABA-B receptor (Q9Z0U4 17-960): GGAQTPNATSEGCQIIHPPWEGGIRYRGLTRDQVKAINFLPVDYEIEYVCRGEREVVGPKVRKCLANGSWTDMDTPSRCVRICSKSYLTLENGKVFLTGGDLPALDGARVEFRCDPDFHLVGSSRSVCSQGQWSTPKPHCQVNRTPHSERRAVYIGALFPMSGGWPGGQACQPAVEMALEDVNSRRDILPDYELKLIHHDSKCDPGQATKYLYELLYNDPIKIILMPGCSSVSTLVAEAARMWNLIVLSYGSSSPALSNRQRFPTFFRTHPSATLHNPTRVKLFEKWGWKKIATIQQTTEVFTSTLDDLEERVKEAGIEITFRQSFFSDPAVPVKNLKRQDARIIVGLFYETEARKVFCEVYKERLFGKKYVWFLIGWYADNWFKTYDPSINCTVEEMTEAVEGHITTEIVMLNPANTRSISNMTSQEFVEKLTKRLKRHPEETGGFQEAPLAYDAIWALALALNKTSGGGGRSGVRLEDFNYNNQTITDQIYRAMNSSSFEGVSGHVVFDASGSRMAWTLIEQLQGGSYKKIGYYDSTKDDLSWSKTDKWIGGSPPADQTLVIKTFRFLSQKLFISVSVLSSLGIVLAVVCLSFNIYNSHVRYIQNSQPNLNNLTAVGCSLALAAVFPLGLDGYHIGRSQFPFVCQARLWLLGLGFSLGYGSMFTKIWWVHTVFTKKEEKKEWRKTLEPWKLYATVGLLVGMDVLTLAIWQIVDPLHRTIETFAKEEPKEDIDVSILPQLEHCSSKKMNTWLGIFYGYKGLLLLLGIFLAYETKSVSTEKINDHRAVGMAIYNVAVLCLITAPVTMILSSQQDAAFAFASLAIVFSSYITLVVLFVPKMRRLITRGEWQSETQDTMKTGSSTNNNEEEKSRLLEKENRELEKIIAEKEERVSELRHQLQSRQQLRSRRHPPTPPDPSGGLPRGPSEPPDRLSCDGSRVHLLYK
Sequence of GABA-B receptor (O88871 41-940): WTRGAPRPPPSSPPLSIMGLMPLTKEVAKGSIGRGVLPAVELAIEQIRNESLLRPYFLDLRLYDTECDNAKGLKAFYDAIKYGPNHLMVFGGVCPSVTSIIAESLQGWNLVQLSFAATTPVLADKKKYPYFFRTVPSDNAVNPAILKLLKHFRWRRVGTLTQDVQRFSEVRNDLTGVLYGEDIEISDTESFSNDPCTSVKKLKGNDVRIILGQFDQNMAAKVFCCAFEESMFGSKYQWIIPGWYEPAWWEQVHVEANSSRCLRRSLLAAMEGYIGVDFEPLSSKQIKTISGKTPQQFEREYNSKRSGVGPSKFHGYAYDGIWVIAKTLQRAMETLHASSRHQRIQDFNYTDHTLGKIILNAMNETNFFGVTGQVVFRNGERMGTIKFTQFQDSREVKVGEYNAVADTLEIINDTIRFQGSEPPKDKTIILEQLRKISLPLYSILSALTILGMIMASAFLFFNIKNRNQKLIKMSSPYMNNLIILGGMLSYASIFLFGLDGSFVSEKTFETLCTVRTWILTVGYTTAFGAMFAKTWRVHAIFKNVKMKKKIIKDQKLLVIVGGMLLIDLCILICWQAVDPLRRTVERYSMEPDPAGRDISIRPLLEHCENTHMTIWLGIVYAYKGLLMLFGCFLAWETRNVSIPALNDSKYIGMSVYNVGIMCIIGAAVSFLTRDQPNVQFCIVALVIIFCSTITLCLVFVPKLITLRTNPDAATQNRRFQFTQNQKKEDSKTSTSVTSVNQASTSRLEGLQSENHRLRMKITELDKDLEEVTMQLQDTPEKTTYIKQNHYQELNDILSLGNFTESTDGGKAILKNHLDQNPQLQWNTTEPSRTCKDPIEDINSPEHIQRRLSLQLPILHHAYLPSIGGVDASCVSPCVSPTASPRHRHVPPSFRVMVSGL

Compound | EC50 [nM]
Cc1cc(NCC(F)(F)F)n2nc(Cc3ccc(Cl)cc3)cc2n1 [Example 1-16, 2-(4-chlorobenzyl)-5-methyl-N-(2,2,2-trifluoroethyl)pyrazolo[1,5-a]pyrimidin-7-amine] | > 10000
CC[C@@H]1CCCCN1c1cc(C)nc2cc(C(C)c3ccc(Cl)cc3)nn12 (stereo partly drawn) [Example 2-22, 2-[1-(4-chlorophenyl)ethyl]-7-[(2R)-2-ethylpiperidin-1-yl]-5-methylpyrazolo[1,5-a]pyrimidine] | 70
Cc1cc(N2CCC(F)(F)C2)n2nc(C(C)c3ccc(Cl)cc3)cc2n1 (stereo not shown) [Example 2-3, 2-[1-(4-chlorophenyl)ethyl]-7-(3,3-difluoropyrrolidin-1-yl)-5-methylpyrazolo[1,5-a]pyrimidine] | 508
Cc1cc(N2CCC(O)C(F)(F)C2)n2nc(Cc3ccc(Cl)cc3)cc2n1 (stereo not shown) [Example 1-5, 1-[2-(4-chlorobenzyl)-5-methylpyrazolo[1,5-a]pyrimidin-7-yl]-3,3-difluoropiperidin-4-ol] | 5930
Cc1cc(NC2CC(F)(F)C2)n2nc(C(C)c3ccc(Cl)cc3)cc2n1 (stereo not shown) [Example 2-21, 2-(1-(4-chlorophenyl)ethyl)-N-(3,3-difluorocyclobutyl)-5-methylpyrazolo[1,5-a]pyrimidin-7-amine] | 394
Cc1cc(N2CCCCC2)n2nc(Cc3ccc(Cl)cc3)cc2n1 [Example 1-9, 2-(4-chlorobenzyl)-5-methyl-7-(piperidin-1-yl)pyrazolo[1,5-a]pyrimidine] | 2570
Cc1cc(N2CCC[C@H](O)C2)n2nc(C(C)c3ccc(Cl)cc3)cc2n1 (stereo partly drawn) [Example 2-10, (3S)-1-{2-[1-(4-chlorophenyl)ethyl]-5-methylpyrazolo[1,5-a]pyrimidin-7-yl}piperidin-3-ol] | 152
Cc1cc(N2CCCCC2CO)n2nc(Cc3ccc(Cl)cc3)cc2n1 (stereo not shown) [Example 1-2, {1-[2-(4-chlorobenzyl)-5-methylpyrazolo[1,5-a]pyrimidin-7-yl]piperidin-2-yl}methanol] | 1660
Cc1cc(N2CCC[C@@H](O)C2)n2nc(C(C)c3ccc(Cl)cc3)cc2n1 (stereo partly drawn) [Example 2-11, (3R)-1-{2-[1-(4-chlorophenyl)ethyl]-5-methylpyrazolo[1,5-a]pyrimidin-7-yl}piperidin-3-ol] | 57
Cc1cc(N2CCC2)n2nc(C(C)c3ccc(Cl)cc3)cc2n1 (stereo not shown) [Example 2-12, 7-(azetidin-1-yl)-2-[1-(4-chlorophenyl)ethyl]-5-methylpyrazolo[1,5-a]pyrimidine] | 2820
Cc1cc(N2CCC3(CCC3O)C2)n2nc(C(C)c3ccc(Cl)cc3)cc2n1 (stereo not shown) [Example 2-20, 6-{2-[1-(4-chlorophenyl)ethyl]-5-methylpyrazolo[1,5-a]pyrimidin-7-yl}-6-azaspiro[3.4]octan-1-ol] | 93
Cc1cc(NC2CC(F)C2)n2nc(C(C)c3ccc(Cl)cc3)cc2n1 (stereo not shown) [Example 2-14, 2-[1-(4-chlorophenyl)ethyl]-N-(3-fluorocyclobutyl)-5-methylpyrazolo[1,5-a]pyrimidin-7-amine] | 165
Cc1cc(N2CCC[C@@H](CO)C2)n2nc(Cc3ccc(Cl)cc3)cc2n1 [Example 1-21, {(3R)-1-[2-(4-chlorobenzyl)-5-methylpyrazolo[1,5-a]pyrimidin-7-yl]piperidin-3-yl}methanol] | 1380
Cc1cc(N2CCC(F)CC2)n2nc(C(C)c3ccc(Cl)cc3)cc2n1 (stereo not shown) [Example 2-4, 2-[1-(4-chlorophenyl)ethyl]-7-(4-fluoropiperidin-1-yl)-5-methylpyrazolo[1,5-a]pyrimidine] | 128
Cc1cc(N2CCC[C@@H](O)C2)n2nc(Cc3ccc(Cl)cc3)cc2n1 [Example 1-7, (3R)-1-[2-(4-chlorobenzyl)-5-methylpyrazolo[1,5-a]pyrimidin-7-yl]piperidin-3-ol] | 1230
Cc1cc(N2CCCCC2CO)n2nc(C(C)c3ccc(Cl)cc3)cc2n1 (stereo not shown) [Example 2-5, (1-{2-[1-(4-chlorophenyl)ethyl]-5-methylpyrazolo[1,5-a]pyrimidin-7-yl}piperidin-2-yl)methanol] | 146
Cc1cc(N2CCCC(F)(F)C2)n2nc(C(C)c3ccc(Cl)cc3)cc2n1 (stereo not shown) [Example 2-7, 2-[1-(4-chlorophenyl)ethyl]-7-(3,3-difluoropiperidin-1-yl)-5-methylpyrazolo[1,5-a]pyrimidine] | 185
Cc1cc(N[C@H]2C[C@H](O)C2)n2nc(C(C)c3ccc(Cl)cc3)cc2n1 (relative stereo) [Example 2-19, trans-3-({2-[1-(4-chlorophenyl)ethyl]-5-methylpyrazolo[1,5-a]pyrimidin-7-yl}amino)cyclobutanol] | 1310
Cc1cc(N2CCCCC2CCO)n2nc(Cc3ccc(Cl)cc3)cc2n1 (stereo not shown) [Example 1-1, 2-{1-[2-(4-chlorobenzyl)-5-methylpyrazolo[1,5-a]pyrimidin-7-yl]piperidin-2-yl}ethanol] | 1400

Further lines, results first:

EC50 [nM] | Compound
593 | Cc1cc(NCC2CC(F)(F)C2)n2nc(C(C)c3ccc(C(F)(F)F)cc3)cc2n1 (stereo not shown) [Example 8-14, N-[(3,3-difluorocyclobutyl)methyl]-5-methyl-2-{1-[4-(trifluoromethyl)phenyl]ethyl}pyrazolo[1,5-a]pyrimidin-7-amine]
1820 | Cc1cc(N2CCCCC2CCO)n2nc(Cc3cccc(C(F)(F)F)c3)cc2n1 (stereo not shown) [Example 6-1, 2-(1-{5-methyl-2-[3-(trifluoromethyl)benzyl]pyrazolo[1,5-a]pyrimidin-7-yl}piperidin-2-yl)ethanol]
> 10000 | Cc1cc(N2CC3(CCOCC3)C2)n2nc(C(C)c3ccc(Cl)cn3)cc2n1 (stereo not shown) [Example 9-9, 2-[1-(5-chloropyridin-2-yl)ethyl]-5-methyl-7-(7-oxa-2-azaspiro[3.5]non-2-yl)pyrazolo[1,5-a]pyrimidine]
760 | Cc1cc(N2CCCC(F)(F)C2)n2nc(C(C)c3ccc(C(F)(F)F)cc3)cc2n1 (stereo not shown) [Example 8-17, 7-(3,3-difluoropiperidin-1-yl)-5-methyl-2-{1-[4-(trifluoromethyl)phenyl]ethyl}pyrazolo[1,5-a]pyrimidine]
> 10000 | CC(=O)N[C@H]1CCN(c2cc(C)nc3cc(C(C)c4ccc(Cl)cn4)nn23)C1 (stereo partly drawn) [Example 9-11, N-[(3S)-1-{2-[1-(5-chloropyridin-2-yl)ethyl]-5-methylpyrazolo[1,5-a]pyrimidin-7-yl}pyrrolidin-3-yl]acetamide]
2020 | Cc1cc(N2CCC[C@H](O)C2)n2nc(C(C)c3ccc(Cl)cn3)cc2n1 (stereo partly drawn) [Example 9-3, (3S)-1-{2-[1-(5-chloropyridin-2-yl)ethyl]-5-methylpyrazolo[1,5-a]pyrimidin-7-yl}piperidin-3-ol]
370 | Cc1cc(N2CCCC(F)C2)n2nc(C(C)c3ccc(C(F)(F)F)cc3)cc2n1 (stereo not shown) [Example 8-12, 7-(3-fluoropiperidin-1-yl)-5-methyl-2-{1-[4-(trifluoromethyl)phenyl]ethyl}pyrazolo[1,5-a]pyrimidine]
420 | Cc1cc(N2CCC3(COC3)C2)n2nc(C(C)c3ccc(C(F)(F)F)cc3)cc2n1 (stereo not shown) [Example 8-3, 5-methyl-7-(2-oxa-6-azaspiro[3.4]oct-6-yl)-2-{1-[4-(trifluoromethyl)phenyl]ethyl}pyrazolo[1,5-a]pyrimidine]
500 | Cc1cc(NC2CC(F)(F)C2)n2nc(C(C)c3ccc(C(F)(F)F)cc3)cc2n1 (stereo not shown) [Example 8-20, N-(3,3-difluorocyclobutyl)-5-methyl-2-{1-[4-(trifluoromethyl)phenyl]ethyl}pyrazolo[1,5-a]pyrimidin-7-amine]
827 | Cc1cc(N2CC3(CCOCC3)C2)n2nc(C(C)c3ccc(C(F)(F)F)cc3)cc2n1 (stereo not shown) [Example 8-4, 5-methyl-7-(7-oxa-2-azaspiro[3.5]non-2-yl)-2-{1-[4-(trifluoromethyl)phenyl]ethyl}pyrazolo[1,5-a]pyrimidine]
2550 | Cc1cc(N2CCNC(=O)C2CCO)n2nc(C(C)c3ccc(C(F)(F)F)cc3)cc2n1 (stereo not shown) [Example 8-13, 3-(2-hydroxyethyl)-4-(5-methyl-2-{1-[4-(trifluoromethyl)phenyl]ethyl}pyrazolo[1,5-a]pyrimidin-7-yl)piperazin-2-one]
365 | Cc1cc(N2CCC[C@@H](O)C2)n2nc(C(C)c3ccc(C(F)(F)F)cc3)cc2n1 (stereo partly drawn) [Example 8-5, (3R)-1-(5-methyl-2-{1-[4-(trifluoromethyl)phenyl]ethyl}pyrazolo[1,5-a]pyrimidin-7-yl)piperidin-3-ol]
